Test results taken from ChEMBL document CHEMBL1140005, “Phenylpropanoic acid derivatives bearing a benzothiazole ring as PPARdelta-selective agonists” (Bioorg Med Chem Lett, 2007).
pEC50: −log10 of the molar value.

Key:
[1] = target: T1, Peroxisome proliferator-activated receptor delta (Homo sapiens, UniProt Q03181)
T1 sequence (Q03181 whole entry): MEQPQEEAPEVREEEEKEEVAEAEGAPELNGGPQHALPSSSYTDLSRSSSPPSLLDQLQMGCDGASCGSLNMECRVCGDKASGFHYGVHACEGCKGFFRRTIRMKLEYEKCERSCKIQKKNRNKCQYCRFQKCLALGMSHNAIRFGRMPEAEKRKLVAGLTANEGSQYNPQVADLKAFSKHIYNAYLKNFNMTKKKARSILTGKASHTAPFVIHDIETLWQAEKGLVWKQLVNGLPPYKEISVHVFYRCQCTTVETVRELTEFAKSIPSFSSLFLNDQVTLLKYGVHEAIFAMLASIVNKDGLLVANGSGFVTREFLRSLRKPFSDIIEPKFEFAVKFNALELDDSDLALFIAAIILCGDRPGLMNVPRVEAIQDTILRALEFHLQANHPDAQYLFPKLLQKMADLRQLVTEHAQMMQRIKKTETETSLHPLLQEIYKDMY

[2] = target: T2, Peroxisome proliferator-activated receptor gamma (Homo sapiens, UniProt P37231); assay: Agonist activity at human PPARgamma receptor expressed in HEK293 cells by GAL4 transactivation assay; assay type: functional, cell-based
T2 sequence (P37231 whole entry): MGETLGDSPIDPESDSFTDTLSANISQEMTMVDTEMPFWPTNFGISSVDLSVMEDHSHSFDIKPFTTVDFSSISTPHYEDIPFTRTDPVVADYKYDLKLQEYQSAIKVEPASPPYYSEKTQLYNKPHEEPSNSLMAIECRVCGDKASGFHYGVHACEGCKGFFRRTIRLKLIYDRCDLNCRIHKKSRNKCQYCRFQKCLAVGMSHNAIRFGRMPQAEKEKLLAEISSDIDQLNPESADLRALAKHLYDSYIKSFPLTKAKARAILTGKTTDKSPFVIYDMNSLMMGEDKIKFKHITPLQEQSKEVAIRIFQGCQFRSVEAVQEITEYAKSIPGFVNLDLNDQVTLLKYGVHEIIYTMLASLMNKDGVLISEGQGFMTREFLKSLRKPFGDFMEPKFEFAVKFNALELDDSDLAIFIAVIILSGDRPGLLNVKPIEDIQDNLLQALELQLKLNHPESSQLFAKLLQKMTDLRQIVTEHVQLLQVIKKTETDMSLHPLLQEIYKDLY

[3] = target: T3, Peroxisome proliferator-activated receptor alpha (Homo sapiens, UniProt Q07869); assay: Agonist activity at human PPARalpha receptor expressed in HEK293 cells by GAL4 transactivation assay; assay type: functional, cell-based
T3 sequence (Q07869 whole entry): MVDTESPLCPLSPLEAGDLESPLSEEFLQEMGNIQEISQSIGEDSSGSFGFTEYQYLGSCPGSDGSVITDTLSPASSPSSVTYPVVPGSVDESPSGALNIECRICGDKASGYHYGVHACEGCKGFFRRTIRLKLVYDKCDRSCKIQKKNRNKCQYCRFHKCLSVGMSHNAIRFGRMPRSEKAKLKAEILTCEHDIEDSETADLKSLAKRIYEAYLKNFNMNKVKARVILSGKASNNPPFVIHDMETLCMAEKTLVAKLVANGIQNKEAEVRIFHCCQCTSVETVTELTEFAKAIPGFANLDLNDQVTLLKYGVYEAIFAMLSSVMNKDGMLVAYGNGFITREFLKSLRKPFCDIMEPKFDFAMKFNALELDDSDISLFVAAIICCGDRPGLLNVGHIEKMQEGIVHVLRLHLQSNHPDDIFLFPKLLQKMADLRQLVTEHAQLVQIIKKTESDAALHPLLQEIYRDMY

With `O=C(O)CCc1ccc(OCCN(Cc2ccccc2)c2nc3ccccc3s2)cc1` the pEC50 [1] was 5.55.
`CC(C)(C)c1ccc(CN(CCOc2ccc(CCC(=O)O)cc2)c2nc3ccccc3s2)cc1` showed a pEC50 [2] of 5.20 and a pEC50 [1] of 5.31.
Molecule `O=C(O)CCc1ccc(OCCN(Cc2ccc(C(F)(F)F)cc2)c2nc3ccccc3s2)cc1` has a pEC50 [3] of 5.35, a pEC50 [2] of 5.43 and a pEC50 [1] of 6.03.
With `O=C(O)CCc1ccc(OCCN(Cc2cccs2)c2nc3ccccc3s2)cc1` the pEC50 [1] was 5.76.
`Cc1ccc2nc(N(CCOc3ccc(CCC(=O)O)cc3)Cc3ccccc3)sc2c1` showed a pEC50 [1] of 5.58.
Work on `O=C(O)CCc1ccc(OCCCN(Cc2ccccc2)c2nc3ccccc3s2)cc1` yielded a pEC50 [1] of 5.59.
Work on `Cc1cc(OCCN(Cc2ccccc2)c2nc3ccccc3s2)ccc1CCC(=O)O` yielded a pEC50 [1] of 5.93.
For `Cc1cc(CCC(=O)O)ccc1OCCCN(Cc1cccs1)c1nc2ccc(Cl)cc2s1`, the pEC50 [1] was 6.41.
For `O=C(O)CCc1ccc(OCCN(Cc2ccccc2)c2nc3ccc(Cl)cc3s2)cc1`, the pEC50 [1] was 5.87.
With `CCc1cc(OCCN(Cc2ccccc2)c2nc3ccccc3s2)ccc1CCC(=O)O` the pEC50 [1] was 5.53.
